Source: patent US8486945B2, “Heterocyclic inhibitors of an Hh-signal cascade, medicinal compositions based thereon and methods for treating diseases caused by the aberrant activity of an Hh-signal system” (priority 2007, dated 2013)

Test system: Hh-signalling cascade
Test: Inhibition of SHh-induced alkaline phosphatase in C3H10T1/2 cells (Hh-signalling cascade inhibition)
Type: cell-based
Conditions: Mus musculus, C3H 10T1/2, half maximal inhibition of SHh (0.3 μg/ml) stimulation of cell alkaline phosphatase
Text: C3H10T1/2 Cells were used for identification of inhibitors of SHh-protein signaling cascade. SHh-protein activates C3H10T1/2 cells, that leads to their osteogenic differentiation [1) Kinto N., Iwamoto M., Enomoto-Iwamoto M., Noji S., Ohuchi H., Yoshioka H., Kataoka H., Wada Y., Yuhao G., Takahashi H. E., Yoshiki S., Yamaguchi A. Fibroblasts expressing Sonic hedgehog induce osteoblast differentiation and ectopic bone formation. FEBS Lett. 1997; 404(2-3): 319-23. 2) Spinella-Jaegle S., Rawadi G., Kawai S., Gallea S., Faucheu C., Mollat P., Courtois B., Bergaud B., Ramez V., Blanchet A. M., Adelmant G., Baron R., Roman-Roman S. Sonic hedgehog increases the commitment of pluripotent mesenchymal cells into the osteoblastic lineage and abolishes adipocytic differentiation. J. Cell Sci. 2001; 114(Pt 11): 2085-94] and, in particular, to expression enhancement of alkaline phosphatase enzyme.
The cells were cultivated in DMEM medium with 10% embryonal calfish serum in incubator at 37° C., 100% humidity and 5% CO2 content. The cells were placed in 384-well plates and left for night. On the next day the tested compounds in concentration of 10 μM were added to the cells, incubated for 30 min, then recombinant (R & D Systems, USA) SHh protein in concentration of 0.3 μg/ml was added and incubation was continued for 3 days. Cells with DMSO instead of a test compound and cells without SHh protein were used as test control. For determination of the cell alkaline phosphatase activity the cells were lysed in the buffer containing 0.2% Triton-X100, lisates were incubated together with proluminescent substrate CSPD (Applied Biosystems, USA) and the resultant luminescence was measured using reader VICTOR^2V (PerkinElmer, USA).
The ability of the compounds to inhibit Hh-signalling cascade was determined using C3H10T1/2 cells in 384-well plates as described in example 1. The compounds were added in triplicates in various concentrations, prepared by multiple dilution of starting solutions (concentration dependences of cell alkaline phosphatase inhibition induced by the addition of tested compounds are shown in FIG. 1). Activity of the compounds was characterized by their concentrations produced half maximal inhibition of stimulation of cell alkaline phosphatase SHh (IC50).

## Cc1nn(C(C)C(=O)N2CCN(c3ccccc3F)CC2)c(=O)c2nn(-c3ccccc3)c(C)c12 (centres unmarked) [I-1013, 2-Phenyl-3,4-dimethyl-6-{1-methyl-2-[4-(2-fluorophenyl)piperazin-1-yl]-2-oxoethyl}-2,6-dihydro-7H-pyrazolo[3,4-d]pyridazin-7-one]
  IC50: < 0.5 µM

## Cc1ccc(-n2nc3c(=O)n(CC(=O)Nc4ccccc4F)nc(C)c3c2C)c(C)c1 [I-1014, 2-[2-(2,4-dimethylphenyl)-3,4-dimethyl-7-oxo-2,7-dihydro-6H-pyrazolo[3,4-c]pyridazin-6-yl]-N-(2-fluorophenyl)acetamide]
  IC50: < 5 µM

## CCC(C(=O)N1CCOCC1)n1nc(C)c2c(C)n(-c3ccccc3)nc2c1=O (centres unmarked) [I-1015, 2-Phenyl-3,4-dimethyl-6-[1-(morpholin-4-ylcarbonyl)propyl]-2,6-dihydro-7H-pyrazolo[3,4-c]pyridazin-7-one]
  IC50: < 5 µM

## Cc1ccc(-n2nc3c(=O)n(CC(=O)NCc4ccc(C)o4)nc(C)c3c2C)cc1 [I-1016, 2-[2-(4-Methylphenyl)-3,4-dimethyl-7-oxo-2,7-dihydro-6H-pyrazolo[3,4-d]pyridazin-6-yl]-N-[(5-methylfuran-2-yl)methyl]acetamide]
  IC50: < 5 µM

## Cc1ccc(-n2nc3c(=O)n(C(C)C(=O)NCCc4cccs4)nc(C)c3c2C)cc1 (centres unmarked) [I-1017, 2-[2-(4-Methylphenyl)-3,4-dimethyl-7-oxo-2,7-dihydro-6H-pyrazolo[3,4-d]pyridazin-6-yl)-N-[2-(thien-2-yl)ethyl]propanamide]
  IC50: < 5 µM

## CCC(C(=O)NC1CC1)n1nc(C)c2c(C)n(-c3ccc(C)cc3)nc2c1=O (centres unmarked) [I-1018, 2-[2-(4-Methylphenyl)-3,4-dimethyl-7-oxo-2,7-dihydro-6H-pyrazolo[3,4-c]pyridazin-6-yl]-N-(cyclopropyl)butanamide]
  IC50: < 5 µM

## Cc1nn(CCC(=O)NCc2cccnc2)c(=O)c2nn(-c3ccccc3)c(C)c12 [I-1019, 3-(2-Phenyl-3,4-dimethyl-7-oxo-2,7-dihydro-6H-pyrazolo[3,4-c]pyridazin-6-yl)-N-(pyridin-3-ylmethyl)propanamide]
  IC50: < 5 µM

## Cc1nn(CCC(=O)NCc2ccco2)c(=O)c2nn(-c3ccccc3)c(C)c12 [I-1020, 3-(2-Phenyl-3,4-dimethyl-7-oxo-2,7-dihydro-6H-pyrazolo[3,4-c]pyridazin-6-yl)-N-(furan-2-ylmethyl)propanamide]
  IC50: < 5 µM

## Cc1nn(CCC(=O)N2CCOCC2)c(=O)c2nn(-c3ccccc3)c(C)c12 [I-1021, 2-Phenyl-3,4-dimethyl-6-(3-(morpholin-4-yl)-3-oxopropyl)-2,6-dihydro-7H-pyrazolo[3,4-c]pyridazin-7-one]
  IC50: < 5 µM

## Cc1nn(CCC(=O)NCc2cccs2)c(=O)c2nn(-c3ccccc3)c(C)c12 [I-1022, 3-(2-Phenyl-3,4-dimethyl-7-oxo-2,7-dihydro-6H-pyrazolo[3,4-c]pyridazin-6-yl)-N-(thien-2-ylmethyl)propanamide]
  IC50: < 5 µM

## Cc1ccc(-n2nc3c(=O)n(CCCC(=O)NCCc4ccco4)nc(C)c3c2C)cc1 [I-1023, 4-[2-(4-Methylphenyl)-3,4-dimethyl-oxo-2,7-dihydro-6H-pyrazolo[3,4-d]pyridazin-6-yl]-N-[2-(furan-2-yl)ethyl]butanamide]
  IC50: < 50 µM

## CCN1CCN(C(=O)CCCn2nc(C)c3c(C)n(-c4ccc(C)cc4)nc3c2=O)CC1 [I-1024, 2-(4-Methylphenyl)-3,4-dimethyl-6-[4-(4-ethylpiperazin-1-yl)-4-oxobutyl]-2,6-dihydro-7H-pyrazolo[3,4-c]pyridazin-7-one]
  IC50: < 50 µM

## Cc1nn(CCCC(=O)N2CCOCC2)c(=O)c2nn(-c3ccccc3)c(C)c12 [I-1025, 2-Phenyl-3,4-dimethyl-6-[4-(morpholin-4-yl)-4-oxobutyl]-2,6-dihydro-2H-pyrazolo[3,4-c]pyridazin-7-one]
  IC50: < 50 µM

## Cc1nn(CCCC(=O)Nc2ccc(C(C)C)cc2)c(=O)c2nn(-c3ccccc3)c(C)c12 [I-1026, 4-(2-Phenyl-3,4-dimethyl-7-oxo-2,7-dihydro-6H-pyrazolo[3,4-d]pyridazin-6-yl)-N-[(1-methylethyl)phenyl]butanamide]
  IC50: < 50 µM

## Cc1cccc(N2CCN(C(=O)CN3C(=O)CSc4c3c(C)nn4-c3ccccc3)CC2C)c1 (centres unmarked) [II-1001, 3-Methyl-4-[2-(3-methyl-4-m-tolylpiperazin-1-yl)-2-oxoethyl]-1-phenyl-1,4-dihydro-pyrazolo[3,4-b][1,4]thiazin-5-one]
  IC50: < 0.5 µM

## Cc1nn(-c2ccccc2)c2c1N(CC(=O)Nc1cccc(C(F)(F)F)c1)C(=O)CS2 [II-1002, 2-(3-Methyl-5-oxo-1-phenyl-5,6-dihydro-1H-pyrazolo[3,4-b][1,4]thiazin-4-yl)-N-(3-trifluoromethylphenyl)acetamide]
  IC50: < 0.5 µM

## Cc1nn(-c2ccccc2)c2c1N(CC(=O)NCc1ccccn1)C(=O)CS2 [II-1003, 2-(3-Methyl-5-oxo-1-phenyl-5,6-dihydro-1H-pyrazolo[3,4-b][1,4]thiazin-4-yl)-N-(pyridin-2-ylmethyl)acetamide]
  IC50: < 5 µM

## COc1ccc(CCNC(=O)CN2C(=O)CSc3c2c(C)nn3-c2ccccc2)cc1OC [II-1005, N-[2-(3,4-Dimethoxyphenyl)ethyl]-2-(3-methyl-5-oxo-1-phenyl-5,6-dihydro-1H-pyrazolo[3,4-b][1,4]thiazin-4-yl)acetamide]
  IC50: < 50 µM

## COc1ccc(CNC(=O)CN2C(=O)CSc3c2c(C)nn3-c2ccccc2)cc1 [II-1007, N-(4-Methoxybenzyl)-2-(3-methyl-5-oxo-1-phenyl-5,6-dihydro-1H-pyrazolo[3,4-b][1,4]thiazin-4-yl)acetamide]
  IC50: < 50 µM

## Cc1nn(-c2ccccc2)c2c1N(CC(=O)NC(C)C)C(=O)CS2 [II-1008, N-Isopropyl-2-(3-methyl-5-oxo-1-phenyl-5,6-dihydro-1H-pyrazolo[3,4-b][1,4]thiazin-4-yl)acetamide]
  IC50: > 50 µM

## Cc1nn(-c2ccccc2)c2c1N(CC(=O)NCCN1CCOCC1)C(=O)CS2 [II-1010, 2-(3-Methyl-5-oxo-1-phenyl-5,6-dihydro-1H-pyrazolo[3,4-b][1,4]thiazin-4-yl)-N-(2-morpholin-4-yl)ethylacetamide]
  IC50: > 50 µM

## CNC(=O)CN1C(=O)CSc2c1c(C)nn2-c1ccccc1 [II-1011, N-Methyl-2-(3-methyl-5-oxo-1-phenyl-5,6-dihydro-1H-pyrazolo[3,4-b][1,4]thiazin-4-yl)acetamide]
  IC50: > 50 µM

## Cc1nn(-c2ccccc2)c2c1N(CC(=O)N1CCN(c3ccc(Cl)cc3)CC1)C(=O)CS2 [II-1012, 4-{2-[4-(4-Chlorophenyl)piperazin-1-yl]-2-oxoethyl}-3-methyl-1-phenyl-1,4-dihydropyrazolo[3,4-b][1,4]thiazin-5-one]
  IC50: < 0.5 µM

## Cc1nn(-c2ccccc2)c2c1N(CC(=O)N1CCCC1)C(=O)CS2 [II-1013, 3-Methyl-4-[2-oxo-2-(pyrrolidin-1-yl)ethyl]-1-phenyl-1,4-dihydropyrazolo[3,4-b][1,4]thiazin-5-one]
  IC50: > 50 µM

## Cc1nn(-c2ccccc2)c2c1N(CCCC(=O)N1CCN(c3ccccc3)CC1)C(=O)CS2 [II-1023, 3-Methyl-4-[4-oxo-4-(4-phenylpiperazin-1-yl)butyl]-1-phenyl-1,4-dihydropyrazolo[3,4-b][1,4]thiazin-5-one]
  IC50: < 0.5 µM

## Cc1nn(-c2ccccc2)c2c1N(CCCC(=O)N1CCN(c3ccccn3)CC1)C(=O)CS2 [II-1025, 3-Methyl-4-[4-oxo-4-((4-pyridin-2-yl)piperazin-1-yl)butyl]-1-phenyl-1,4-dihydropyrazolo[3,4-b][1,4]thiazin-5-one]
  IC50: < 0.5 µM

## COc1ccc(NC(=O)CCCN2C(=O)CSc3c2c(C)nn3-c2ccccc2)cc1 [II-1026, N-(4-Methoxyphenyl)-4-(3-methyl-5-oxo-1-phenyl-5,6-dihydro-1H-pyrazolo[3,4-b][1,4]thiazin-4-yl)butyramide]
  IC50: < 50 µM

## COc1cccc(C(=O)Nc2ccc(-c3cn4ccccc4n3)cc2)c1 [III-1001, N-(4-(Imidazo[1,2-a]pyridin-2-yl)phenyl)-3-methoxybenzamide]
  IC50: < 0.5 µM

## CCC(=O)Nc1ccc(-c2cn3ccccc3n2)cc1 [III-1002, N-(4-(Imidazo[1,2-a]pyridin-2-yl)phenyl)propionamide]
  IC50: < 50 µM

## O=C(Nc1ccc(-c2cn3ccccc3n2)cc1)c1ccncc1 [III-1003, N-(4-(Imidazo[1,2-a]pyridin-2-yl)phenyl)isonicotinamide]
  IC50: < 0.5 µM

## O=C(Nc1ccc(-c2cn3ccccc3n2)cc1)c1cccs1 [III-1004, N-(4-(Imidazo[1,2-a]pyridin-2-yl)phenyl)thiophen-2-carboxamide]
  IC50: < 5 µM

## O=C(Nc1ccc(-c2cn3ccccc3n2)cc1)c1ccc(Cl)cc1 [III-1005, 4-Chloro-N-(4-(imidazo[1,2-a]pyridin-2-yl)phenyl)benzamide]
  IC50: < 5 µM
